Experiments:
Type in all cases: cell-based
α1A = molecular target: T1, α1A (UniProt P35348); test: FLIPR intracellular calcium assay, α1A; settings: for EC50: FLIPR, fluo-3 calcium, NA = not active, read-out: α1A potency (EC50); for α1A relative efficacy: value in parentheses, relative to a standard full agonist
T1 sequence (P35348 1-466): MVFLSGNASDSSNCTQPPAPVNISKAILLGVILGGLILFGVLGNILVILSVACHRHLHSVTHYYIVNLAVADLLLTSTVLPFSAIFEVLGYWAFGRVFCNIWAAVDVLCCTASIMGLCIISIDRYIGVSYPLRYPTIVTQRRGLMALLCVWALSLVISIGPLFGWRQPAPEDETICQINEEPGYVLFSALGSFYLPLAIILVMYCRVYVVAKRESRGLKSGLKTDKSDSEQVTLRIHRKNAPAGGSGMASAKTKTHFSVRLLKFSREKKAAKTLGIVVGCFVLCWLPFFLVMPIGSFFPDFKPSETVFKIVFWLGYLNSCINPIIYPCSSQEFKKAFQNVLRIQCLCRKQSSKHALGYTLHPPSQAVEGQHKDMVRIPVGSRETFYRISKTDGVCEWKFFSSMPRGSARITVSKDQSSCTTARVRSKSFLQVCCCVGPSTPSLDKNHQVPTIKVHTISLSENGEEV
Method: (§1) Selected examples were tested via the intracellular calcium assay known as Fluorometric Imaging Plate Reader (FLIPR) which involves the detection of calcium pulses by fluo-3 for analyzing function proximal to α1 receptor activation. […] The compound's activity is expressed as its relative efficacy compared to a standard full agonist.

α2B = molecular target: T2, α2B (Homo sapiens, UniProt P18089); test: FLIPR intracellular calcium assay, α2B; settings: for EC50: FLIPR, fluo-3 calcium, NA = not active, read-out: α2B potency (EC50); for α2B relative efficacy: value in parentheses, relative to a standard full agonist
T2 sequence (P18089 1-450): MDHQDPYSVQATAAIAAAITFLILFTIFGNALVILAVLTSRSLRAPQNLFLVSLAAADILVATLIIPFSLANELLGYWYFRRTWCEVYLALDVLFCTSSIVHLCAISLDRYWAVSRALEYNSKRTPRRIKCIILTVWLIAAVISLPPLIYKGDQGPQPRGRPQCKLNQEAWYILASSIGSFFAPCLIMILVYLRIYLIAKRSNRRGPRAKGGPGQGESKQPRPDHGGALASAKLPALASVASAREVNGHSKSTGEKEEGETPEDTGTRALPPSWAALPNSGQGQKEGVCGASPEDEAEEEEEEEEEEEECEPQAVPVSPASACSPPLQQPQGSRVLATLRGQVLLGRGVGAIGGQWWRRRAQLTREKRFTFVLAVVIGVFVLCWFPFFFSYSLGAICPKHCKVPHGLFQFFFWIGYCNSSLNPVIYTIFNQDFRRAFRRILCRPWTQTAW

α2A = molecular target: T3, α2A (Homo sapiens, UniProt P08913); test: FLIPR intracellular calcium assay, α2A; settings: for EC50: FLIPR, fluo-3 calcium, NA = not active, read-out: α2A potency (EC50); for α2A relative efficacy: value in parentheses, relative to a standard full agonist
T3 sequence (P08913 1-465): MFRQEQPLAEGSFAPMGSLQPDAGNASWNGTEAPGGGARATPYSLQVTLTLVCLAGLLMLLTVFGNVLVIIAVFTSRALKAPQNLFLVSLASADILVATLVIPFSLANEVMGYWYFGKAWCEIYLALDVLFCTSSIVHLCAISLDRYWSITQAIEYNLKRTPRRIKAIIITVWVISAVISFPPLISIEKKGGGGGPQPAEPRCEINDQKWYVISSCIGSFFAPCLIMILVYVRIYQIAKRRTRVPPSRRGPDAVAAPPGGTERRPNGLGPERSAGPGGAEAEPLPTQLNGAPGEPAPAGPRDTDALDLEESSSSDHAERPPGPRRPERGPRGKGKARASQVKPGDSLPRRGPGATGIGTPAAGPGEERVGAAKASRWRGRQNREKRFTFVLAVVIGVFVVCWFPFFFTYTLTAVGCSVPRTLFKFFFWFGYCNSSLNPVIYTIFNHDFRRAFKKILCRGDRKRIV

α1B = molecular target: T4, α1B (UniProt P35368); test: FLIPR intracellular calcium assay, α1B; settings: for EC50: FLIPR, fluo-3 calcium, NA = not active, read-out: α1B potency (EC50); for α1B relative efficacy: value in parentheses, relative to a standard full agonist
T4 sequence (P35368 1-520): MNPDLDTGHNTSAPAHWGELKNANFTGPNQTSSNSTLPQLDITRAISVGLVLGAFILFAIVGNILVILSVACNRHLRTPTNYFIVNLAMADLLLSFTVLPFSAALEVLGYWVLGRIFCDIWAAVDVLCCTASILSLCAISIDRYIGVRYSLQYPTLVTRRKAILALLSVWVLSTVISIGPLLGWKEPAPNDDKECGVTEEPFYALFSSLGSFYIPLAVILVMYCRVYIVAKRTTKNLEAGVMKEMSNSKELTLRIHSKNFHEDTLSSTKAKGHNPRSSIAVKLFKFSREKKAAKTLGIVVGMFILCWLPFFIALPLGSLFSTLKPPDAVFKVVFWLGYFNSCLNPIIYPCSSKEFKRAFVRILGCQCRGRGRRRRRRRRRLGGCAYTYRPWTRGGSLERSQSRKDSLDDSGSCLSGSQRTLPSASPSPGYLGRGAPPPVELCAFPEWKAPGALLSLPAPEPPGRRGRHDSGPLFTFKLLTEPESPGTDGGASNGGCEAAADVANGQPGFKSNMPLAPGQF
Method: as §1

α2C = molecular target: T5, α2C (Homo sapiens, UniProt P18825); test: FLIPR intracellular calcium assay, α2C; settings: for EC50: read-out: α2C potency (EC50); for α2C relative efficacy: value in parentheses, relative to a standard full agonist
T5 sequence (P18825 1-462): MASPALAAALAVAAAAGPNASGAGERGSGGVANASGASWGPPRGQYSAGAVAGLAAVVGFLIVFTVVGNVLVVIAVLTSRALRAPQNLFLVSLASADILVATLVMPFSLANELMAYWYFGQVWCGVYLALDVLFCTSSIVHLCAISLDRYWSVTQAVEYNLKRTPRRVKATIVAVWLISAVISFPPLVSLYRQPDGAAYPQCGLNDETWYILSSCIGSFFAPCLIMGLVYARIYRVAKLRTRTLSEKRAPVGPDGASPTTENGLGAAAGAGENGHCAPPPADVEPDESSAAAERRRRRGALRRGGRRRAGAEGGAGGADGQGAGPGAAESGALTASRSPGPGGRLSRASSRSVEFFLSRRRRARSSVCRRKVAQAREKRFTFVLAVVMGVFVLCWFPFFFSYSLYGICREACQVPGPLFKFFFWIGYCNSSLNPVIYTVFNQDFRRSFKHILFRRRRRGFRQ

[1] = FLIPR, fluo-3 calcium, NA = not active

EC50 (α1A) [nM] | EC50 (α2B) [nM] | α2B relative efficacy (α2B) | EC50 (α2A) [nM] | α2A relative efficacy (α2A) | EC50 (α1B) [µM] | EC50 (α2C; [1]) [nM] | α2C relative efficacy (α2C) | α1A relative efficacy (α1A) | α1B relative efficacy (α1B) | α2C potency (EC50) (α2C; [1]) | SMILES
> 10000 | 413 | 0.77 | 4050 | 0.20 | > 10 | 34.6 | 0.89 |  |  |  | C#CC(C)NC1=NCCO1 (stereo not drawn)
6540 | 91.5 | 0.82 | 54.7 | 0.74 |  | 0.004 | 0.87 | 0.78 |  |  | C#CC(CC)NC1=NCCO1 (stereo not drawn)
3030 | 386 | 0.68 | 664 | 0.44 | > 10 | 65 | 0.99 | 0.72 |  |  | C#CC(CCC)NC1=NCCO1 (stereo not drawn)
7370 | 331 | 0.48 | > 10000 |  | > 10 | 18.3 | 0.98 | 0.59 |  |  | C#CC(CC(C)C)NC1=NCCO1 (stereo not drawn)
1200 | 64 | 0.88 | 16.9 | 0.85 | 5.94 |  | 1.02 | 0.93 | 0.28 | Potent | C#C[C@H](NC1=NCCO1)C(C)C
 | 354 | 0.71 | 298 | 0.41 | > 10 | 127 | 0.89 |  |  |  | C#CC(NC1=NCCO1)C1CC1 (stereo not drawn)
1650 | 361 | 0.36 | > 10000 |  | > 10 | 295 | 0.81 | 0.34 |  |  | C#CC(NC1=NCCO1)c1ccccc1Br (stereo not drawn)
1140 | 215 | 0.56 | 588 | 0.42 |  | 158 | 0.76 | 0.99 |  |  | N#CC(NC1=NCCO1)c1ccccc1 (stereo not drawn)
40.8 | 25.9 | 0.50 | 30 | 0.79 | 3.51 | 6.01 | 0.88 | 0.96 | 0.54 |  | C#CC(NC1=NCCO1)c1cccc(F)c1F (stereo not drawn)
410 | 218 | 0.56 | 80.5 | 0.88 | 5.36 | 382 | 0.78 | 0.81 | 0.24 |  | C#CC(NC1=NCCO1)c1cccc(Cl)c1 (stereo not drawn)

SMILES | EC50 (α1A) [nM] | EC50 (α2B) [nM] | α2B relative efficacy (α2B) | EC50 (α2A) [nM] | α2A relative efficacy (α2A) | EC50 (α1B) [µM] | EC50 (α2C; [1]) [nM] | α2C relative efficacy (α2C) | α1A relative efficacy (α1A) | α1B relative efficacy (α1B) | α2C potency (EC50) (α2C; [1])
C#CC(NC1=NCCO1)c1ccccc1 (stereo not drawn) |  |  | 1.12 (0.61) |  | 0.04 (0.82) |  |  | Potent (0.82) | 0.58 (0.92) |  | 

Source: US8080570B2, “α2B and α2C agonists” (Allergan, Inc., priority 2008, dated 2011)
